# Measured values from patent US20150258107A1, “METHODS AND COMPOSITIONS FOR TREATING DEPRESSION” (DemeRx, Inc., priority 2014, published 2015).
# “Also recorded” adds a separate entry of the source. Read-outs that look alike come from different tables or passages of the source.
# Columns and labels:
# [1] = tested on: healthy, drug-free male volunteers; test: Pupillometry (pupillary miosis) in healthy volunteers; type: in vivo, human; conditions: 3, 10, 30, 60 mg single oral dose
# Protocol: Pulse oximetry and capnography data were collected continuously using a GE Carescape B650 monitoring system from 2 hours prior to dosing and until six hours after dosing, and thereafter at 12, 24, 48 and 72 hours post-dosing. […] Pupillary miosis was assessed by pupillometry.
# Summary statistics (means, standard deviations, and coefficients of variation) were determined for each dose group for safety laboratory test data, ECG and pharmacokinetic parameters, and pharmacodynamic variables. Categorical variables were analysed using counts and percentages. Dose-proportionality of AUC and Cmax was assessed using linear regression. The effect of dose on pharmacodynamic parameter values over time was assessed using two-factor analysis of variance (ANOVA). Pairwise comparisons (with Tukey-Kramer adjustment) between each dose group to the placebo were conducted at each time point using the least squares estimates obtained from the ANOVA, using SAS Proc Mixed (SAS ver 6.0).
# [2] = Plasma toxicokinetics in dogs, fourteen day repeat dose; type: in vivo, dog
# Protocol: Noribogaine HCl was administered to groups of 4 male and 4 female dogs by single oral gavage daily for 14 days at doses of 0, 0.5, 1.0 and 5.0 mg/kg/day. An additional group of 4 male and 4 female dogs received either the vehicle control or 5.0 mg/kg/day for 14 days and were held for an additional 28 days after cessation of dosing to assess recovery from any potential drug-induced changes. The study was conducted under GLP guidelines and included comprehensive examinations of clinical signs, body weight, clinical pathology parameters, ophthalmologic examinations, ECG recordings and analyses of plasma for bioanalytical measurement of drug levels at appropriate intervals during the study. At the termination of the dosing phase and at the termination of the recovery phase, all dogs were subjected to a complete post-mortem examination including gross examination of major organs and histologic examination of an extensive list of tissues. Additional sections of brain were obtained from cerebrum, cerebellus, brain stem and spinal cord and examined histologically to evaluate potential effects on brain histopathology. In addition, these sections were examined with immunohistochemical stains for GFAP for evidence of gliosis and Calbindin for a more comprehensive examination of cerebellar Purkinje cells.
# [3] = tested on: healthy, drug-free male volunteers; test: Safety and tolerability of noribogaine in healthy volunteers; type: in vivo, human
# Protocol: Safety and tolerability of noribogaine were tested in the group of volunteers from Example 9. […] Safety evaluations included clinical monitoring, recording of adverse events (AEs), safety laboratory tests, vital signs, ECG telemetry from −2 h to 6 h after dosing, and 12-lead electrocardiograms (ECGs) up to 216 hours post-dosing.
# [4] = tested on: opioid-dependent participants; test: Time to resumption of opioid substitution treatment (OST) and opiate withdrawal scales; type: in vivo, human
# Protocol: Three cohorts of nine (9) subjects (6 administered noribogaine and 3 administered placebo in each cohort) were evaluated for tolerability, pharmacokinetics, and efficacy. Cohort 1 received a single dose of 60 mg noribogaine or placebo. Cohort 2 received a single dose of 120 mg noribogaine or placebo. Cohort 3 received a single dose of 180 mg noribogaine or placebo. […] Headaches were frequent in the placebo and 60 mg noribogaine treatment groups, but were attenuated in the 120 mg and 180 mg dose groups.
# Patients were evaluated based on the Clinical Opiate Withdrawal Scale (COWS), Subjective Opiate Withdrawal Scale (SOWS), and Objective Opiate Withdrawal Scale (OOWS) scoring systems over the period of time between administration of noribogaine (or placebo) until resumption of OST. These scales are outlined in Guidelines for the Psychosocially Assisted Pharmacological Treatment of Opioid Dependence, World Health Organization, Geneva (2009), Annex 10, which is incorporated herein by reference in its entirety. The scales measure the intensity of withdrawal symptoms, based on clinical, subjective, and objective indicia.
# [5] = female, dog, plasma, po, 0.5 mg/kg, female dogs, Gr 2, 0.5 mg/kg, D1
# [6] = female, dog, plasma, po, 0.5 mg/kg, female dogs, Gr 2, 0.5 mg/kg, D14
# [7] = female, dog, plasma, po, 1 mg/kg, female dogs, Gr 3, 1.0 mg/kg, D1
# [8] = female, dog, plasma, po, 1 mg/kg, female dogs, Gr 3, 1.0 mg/kg, D14
# [9] = female, dog, plasma, po, 5 mg/kg, female dogs, Gr 4, 5.0 mg/kg, D1
# [10] = female, dog, plasma, po, 5 mg/kg, female dogs, Gr 4, 5.0 mg/kg, D14
# [11] = male, dog, plasma, po, 0.5 mg/kg, male dogs, Gr 2, 0.5 mg/kg, D1
# [12] = male, dog, plasma, po, 0.5 mg/kg, male dogs, Gr 2, 0.5 mg/kg, D14
# [13] = male, dog, plasma, po, 1 mg/kg, male dogs, Gr 3, 1.0 mg/kg, D1
# [14] = male, dog, plasma, po, 1 mg/kg, male dogs, Gr 3, 1.0 mg/kg, D14
# [15] = male, dog, plasma, po, 5 mg/kg, male dogs, Gr 4, 5.0 mg/kg, D1
# [16] = male, dog, plasma, po, 5 mg/kg, male dogs, Gr 4, 5.0 mg/kg, D14
structure (smiles),measurement,setting,value
CC[C@H]1CC2C[C@H]3c4[nH]c5ccc(O)cc5c4CCN(C2)C13 [noribogaine],Pupillary constriction,[1],no evidence of pupillary constriction
same,Cmax,"[2]; female dogs, Gr 2, 0.5 mg/kg, D1",25.3 ng/mL
same,Cmax,"[2]; female dogs, Gr 2, 0.5 mg/kg, D14",29.8 ng/mL
same,Cmax,"[2]; female dogs, Gr 3, 1.0 mg/kg, D1",68.5 ng/mL
same,Cmax,"[2]; female dogs, Gr 3, 1.0 mg/kg, D14",74.1 ng/mL
same,Cmax,"[2]; female dogs, Gr 4, 5.0 mg/kg, D1",691 ng/mL
same,Cmax,"[2]; female dogs, Gr 4, 5.0 mg/kg, D14",683 ng/mL
same,AUC(0-inf),[2]; [5],44.9 ng·h/mL
same,Tmax,[2]; [5],0.5 h
same,half-life,[2]; [5],1 h
same,AUC(0-t),"[2]; female, dog, plasma, po, 0.5 mg/kg, female dogs, Gr 2, 0.5 mg/kg, D1, read-out: AUC0-24 h",40.4 ng·h/mL
same,AUC(0-t),"[2]; female, dog, plasma, po, 0.5 mg/kg, female dogs, Gr 2, 0.5 mg/kg, D1, read-out: AUC0-last",31.5 ng·h/mL
same,AUC(0-inf),[2]; [6],45.7 ng·h/mL
same,Tmax,[2]; [6],1 h
same,half-life,[2]; [6],1.1 h
same,AUC(0-t),"[2]; female, dog, plasma, po, 0.5 mg/kg, female dogs, Gr 2, 0.5 mg/kg, D14, read-out: AUC0-24 h",55 ng·h/mL
same,AUC(0-t),"[2]; female, dog, plasma, po, 0.5 mg/kg, female dogs, Gr 2, 0.5 mg/kg, D14, read-out: AUC0-last",35.4 ng·h/mL
same,AUC(0-inf),[2]; [7],165 ng·h/mL
same,Tmax,[2]; [7],0.8 h
same,half-life,[2]; [7],1.4 h
same,AUC(0-t),"[2]; female, dog, plasma, po, 1 mg/kg, female dogs, Gr 3, 1.0 mg/kg, D1, read-out: AUC0-24 h",176 ng·h/mL
same,AUC(0-t),"[2]; female, dog, plasma, po, 1 mg/kg, female dogs, Gr 3, 1.0 mg/kg, D1, read-out: AUC0-last",149 ng·h/mL
same,AUC(0-inf),[2]; [8],197 ng·h/mL
same,Tmax,[2]; [8],0.5 h
same,half-life,[2]; [8],1.6 h
same,AUC(0-t),"[2]; female, dog, plasma, po, 1 mg/kg, female dogs, Gr 3, 1.0 mg/kg, D14, read-out: AUC0-24 h",204 ng·h/mL
same,AUC(0-t),"[2]; female, dog, plasma, po, 1 mg/kg, female dogs, Gr 3, 1.0 mg/kg, D14, read-out: AUC0-last",169 ng·h/mL
same,AUC(0-inf),[2]; [9],3430 ng·h/mL
same,Tmax,[2]; [9],0.6 h
same,half-life,[2]; [9],4.3 h
same,AUC(0-t),"[2]; female, dog, plasma, po, 5 mg/kg, female dogs, Gr 4, 5.0 mg/kg, D1, read-out: AUC0-24 h",3370 ng·h/mL
same,AUC(0-t),"[2]; female, dog, plasma, po, 5 mg/kg, female dogs, Gr 4, 5.0 mg/kg, D1, read-out: AUC0-last",3370 ng·h/mL
same,AUC(0-inf),[2]; [10],6280 ng·h/mL
same,half-life,[2]; [10],5.7 h
same,AUC(0-t),"[2]; female, dog, plasma, po, 5 mg/kg, female dogs, Gr 4, 5.0 mg/kg, D14, read-out: AUC0-24 h",5950 ng·h/mL
same,AUC(0-t),"[2]; female, dog, plasma, po, 5 mg/kg, female dogs, Gr 4, 5.0 mg/kg, D14, read-out: AUC0-last",5950 ng·h/mL
same,AUC(0-inf),[2]; [11],67.8 ng·h/mL
same,Tmax,[2]; [11],0.7 h
same,half-life,[2]; [11],1.3 h
same,AUC(0-t),"[2]; male, dog, plasma, po, 0.5 mg/kg, male dogs, Gr 2, 0.5 mg/kg, D1, read-out: AUC0-24 h",59.7 ng·h/mL
same,AUC(0-t),"[2]; male, dog, plasma, po, 0.5 mg/kg, male dogs, Gr 2, 0.5 mg/kg, D1, read-out: AUC0-last",46.6 ng·h/mL
same,Cmax,"[2]; male, dog, plasma, po, 0.5 mg/kg, male dogs, Gr 2, 0.5 mg/kg, D1, read-out: Cmax",28.8 ng/mL
same,AUC(0-inf),[2]; [12],68.2 ng·h/mL
same,Tmax,[2]; [12],0.7 h
same,half-life,[2]; [12],1.3 h
same,AUC(0-t),"[2]; male, dog, plasma, po, 0.5 mg/kg, male dogs, Gr 2, 0.5 mg/kg, D14, read-out: AUC0-24 h",64.5 ng·h/mL
same,AUC(0-t),"[2]; male, dog, plasma, po, 0.5 mg/kg, male dogs, Gr 2, 0.5 mg/kg, D14, read-out: AUC0-last",53.2 ng·h/mL
same,Cmax,"[2]; male, dog, plasma, po, 0.5 mg/kg, male dogs, Gr 2, 0.5 mg/kg, D14, read-out: Cmax",29.4 ng/mL
same,AUC(0-inf),[2]; [13],121 ng·h/mL
same,Tmax,[2]; [13],0.9 h
same,half-life,[2]; [13],1.2 h
same,AUC(0-t),"[2]; male, dog, plasma, po, 1 mg/kg, male dogs, Gr 3, 1.0 mg/kg, D1, read-out: AUC0-24 h",120 ng·h/mL
same,AUC(0-t),"[2]; male, dog, plasma, po, 1 mg/kg, male dogs, Gr 3, 1.0 mg/kg, D1, read-out: AUC0-last",102 ng·h/mL
same,Cmax,"[2]; male, dog, plasma, po, 1 mg/kg, male dogs, Gr 3, 1.0 mg/kg, D1, read-out: Cmax",58.6 ng/mL
same,AUC(0-inf),[2]; [14],196 ng·h/mL
same,Tmax,[2]; [14],0.8 h
same,half-life,[2]; [14],1.8 h
same,AUC(0-t),"[2]; male, dog, plasma, po, 1 mg/kg, male dogs, Gr 3, 1.0 mg/kg, D14, read-out: AUC0-24 h",210 ng·h/mL
same,AUC(0-t),"[2]; male, dog, plasma, po, 1 mg/kg, male dogs, Gr 3, 1.0 mg/kg, D14, read-out: AUC0-last",172 ng·h/mL
same,Cmax,"[2]; male, dog, plasma, po, 1 mg/kg, male dogs, Gr 3, 1.0 mg/kg, D14, read-out: Cmax",67.6 ng/mL
same,AUC(0-inf),[2]; [15],3630 ng·h/mL
same,Tmax,[2]; [15],0.6 h
same,half-life,[2]; [15],4.7 h
same,AUC(0-t),"[2]; male, dog, plasma, po, 5 mg/kg, male dogs, Gr 4, 5.0 mg/kg, D1, read-out: AUC0-24 h",3520 ng·h/mL
same,AUC(0-t),"[2]; male, dog, plasma, po, 5 mg/kg, male dogs, Gr 4, 5.0 mg/kg, D1, read-out: AUC0-last",3520 ng·h/mL
same,Cmax,"[2]; male, dog, plasma, po, 5 mg/kg, male dogs, Gr 4, 5.0 mg/kg, D1, read-out: Cmax",693 ng/mL
same,AUC(0-inf),[2]; [16],6960 ng·h/mL
same,Tmax,[2]; [16],0.9 h
same,half-life,[2]; [16],6.5 h
same,AUC(0-t),"[2]; male, dog, plasma, po, 5 mg/kg, male dogs, Gr 4, 5.0 mg/kg, D14, read-out: AUC0-24 h",6400 ng·h/mL
same,AUC(0-t),"[2]; male, dog, plasma, po, 5 mg/kg, male dogs, Gr 4, 5.0 mg/kg, D14, read-out: AUC0-last",6400 ng·h/mL
same,Cmax,"[2]; male, dog, plasma, po, 5 mg/kg, male dogs, Gr 4, 5.0 mg/kg, D14, read-out: Cmax",716 ng/mL
same,Adverse events reported,[3]; 3 mg dose group,five adverse events were reported by two subjects
same,Adverse events reported,[3]; 10 mg dose group,one adverse event was reported by single subjects
same,Single increase in QTcF (one subject),"[3]; 10 mg, 24 hours post-dosing",> 60 ms
same,Adverse events reported,[3]; 30 mg dose group,one adverse event was reported by single subjects
same,"Oximetry, capnography, respiratory rate",[3]; 3-60 mg single oral dose,"no changes in oximetry or capnography, or changes in respiratory rate"
same,QTcF values >500 msec,[3]; 3-60 mg single oral dose,no QTcF values>500 msec at any time
same,Vital signs and safety laboratory tests,[3]; 3-60 mg single oral dose,no changes in vital signs or safety laboratory tests of note
same,"Adverse events, Mild",[3]; Dose 3 mg,Back pain; also recorded: Dizziness; also recorded: Epistaxis; also recorded: Headache
same,"Adverse events, Moderate",[3]; Dose 3 mg,Headache
same,"Adverse events, Mild",[3]; Dose 10 mg,Headache
same,"Adverse events, Mild",[3]; Dose 30 mg,Headache
same,"Withdrawal symptoms (COWS, OOWS, SOWS, first six hours)",[4]; 120 mg,generally experienced fewer withdrawal symptoms than the other patients
same,Average time to resumption of opioids,[4]; single 120 mg dose,greater than 20 hours
